In brackets after ≈: the same amount, converted by molar mass.
Key:
[1] = test system: immunosuppressant activity; assay: Immunosuppressant activity (general statement); assay type: in vivo; settings: result in words
T. rubrum = assay: Agar dilution antifungal assay, Trichophyton rubrum; assay type: cell-based, Trichophyton rubrum (ATCC No. 10218 and 14001); settings: for MIC: Trichophyton rubrum, read-out: Parts Per Million Inhibitions, T. rubrum
Procedure: (§1) Various compounds of this invention display antifungal and anti-yeast activity.
(§2) In Table IX below are listed the antifungal activity of a number of compounds encompassed in the present invention. These were determined by the agar dilution method as described in Chapters 2 and 3 of Methods in Microbiology, Vol. 7B, edited by J. R. Norris and D. W. Ribbons, Academic Press, New York, 1972.

Rat Paw Edema = assay: Rat paw edema assay, local administration; assay type: in vivo; settings: injected directly into paw, carrageenan
Procedure: The anti-inflammatory activity of representative compounds of this invention was determined by the rat paw edema assay both by local administration (Table XI below) and by oral dosing (Table XII below). For the oral dosing, the procedure of C. A. Winter, E. A. Risley and G. W. Nuss, Proc. Soc. Exp. Biol. Med. 111, 544 (1962) was employed with measurement taken four hours after the drug was administered. The local administration tests were carried out similarly except the irritant (carrageenan) and the test compound were injected simultaneously at time zero.
Tables XI and XII report the anti-inflammatory activity of the compounds tested as % difference in the edema or swelling as compared with the control. These Tables also give the response in many instances of more than one dose level of the same drug.

T. ajelloi = assay: Agar dilution antifungal assay, Trichophyton ajelloi; assay type: cell-based
Procedure: as §1, §2

T. mentagrophytes = assay: Agar dilution antifungal assay, Trichophyton mentagrophytes; assay type: cell-based, Trichophyton mentagrophytes (ATCC No. 8757 and 9129)
Procedure: as §1, §2

Question: With c1ccc2c(c1)ncc1nccn12 [Compound 109, imidazo[1,2-a]quinoxaline] as the compound, how does the immunosuppressant activity [1] read?
Answer: lacks immunosuppressant activity

Question: Which MIC (T. rubrum) does the source give for CCCCc1nc2ccccc2n2ccnc12 [Compound 113] here?
Answer: 16 µg/mL (≈ 71 µM)

Question: CCCCCc1nc2ccccc2n2ccnc12 [Compound 114] was tested. Which “% Difference from Control (edema), local administration, 10 μg” value (Rat Paw Edema) did it give?
Answer: -30.0%

Question: Which MIC (T. ajelloi; Arthroderma uncinatum, read-out: Parts Per Million Inhibitions, T. ajelloi) does the source give for CCCCCCCCc1nc2ccccc2n2ccnc12 [Compound 117] here?
Answer: 16 µg/mL (≈ 56.9 µM)

Question: What about the MIC (T. mentagrophytes; Trichophyton mentagrophytes, read-out: Parts Per Million Inhibitions, T. mentagrophytes) of the same compound?
Answer: 16 µg/mL (≈ 56.9 µM)

Question: What about the MIC (T. rubrum) of the same compound?
Answer: 8 µg/mL (≈ 28.4 µM)

Question: How did the immunosuppressant activity [1] turn out when c1ccc(-c2nc3ccccc3n3ccnc23)cc1 [Compound 131, 4-phenylimidazo[1,2-a]quinoxaline] was run?
Answer: only minor activity

Question: What does the source list for Clc1cccc(Nc2nc3ccccc3n3ccnc23)c1 [Compound 179]?
Answer: Parts Per Million Inhibitions, T. ajelloi (T. ajelloi): 100 Parts Per Million; Parts Per Million Inhibitions, T. mentagrophytes (T. mentagrophytes): 100 Parts Per Million; Parts Per Million Inhibitions, T. rubrum (T. rubrum): 100 Parts Per Million

Reference: US4200750A, “4-Substituted imidazo [1,2-a]quinoxalines” (Westwood Pharmaceuticals Inc., priority 1977, dated 1980)
